Experimental data published in patent US6906035B2, “Antimicrobial cationic peptides” (priority 1995, dated 2005).
Read-outs that look alike come from different tables or passages of the source. Ends that are not written are not given here.

Columns and labels:
X. maltophila = test: organism not typed; conditions: agent alone
Experimental: (§1) FICs are performed by checkerboard titrations of peptides in one dimension of a microtiter plate, and of antibiotics in the other dimension, for example. The FIC is calculated by looking at the impact of one antibiotic on the MIC of the other and vice versa. […] Preferably, an FIC of less than 0.5 is obtained for synergism. As used herein, FIC can be determined as follows: [formula]
(§2) Synergism is identified as an FIC of about ≦0.5.

P. aeruginosa [1] = test: microbe, parasite or virus in culture; conditions: agent alone
Experimental: as §1, §2

A. calcoaceticus = conditions: agent alone
Experimental: as §1, §2

E. cloacae = conditions: agent alone
Experimental: as §1, §2

B. Subtilis = test: MIC, broth dilution in LB-S; type: cell-based; conditions: MBI 29 and MBI21 derivatives
Experimental: (§3) The biological activity of the peptides can be determined by standard methods known to those of skill in the art, such as “minimal inhibitory concentration (MIC)” assay described in the present examples, whereby the lowest concentration at which no change in OD is observed for a given period of time is recorded as MIC. Alternatively, “fractional inhibitory concentration (FIC)” is also useful for determination of synergy between the peptides of the invention, or the peptides in combination with known antibiotics. FICs are performed by checkerboard titrations of peptides in one dimension of a microtiter plate, and of antibiotics in the other dimension, for example. The FIC is calculated by looking at the impact of one antibiotic on the MIC of the other and vice versa. […] Preferably, an FIC of less than 0.5 is obtained for synergism. As used herein, FIC can be determined as follows: [formula]
(§4) Briefly, cells were grown overnight at 37° C. in LB-S (Luria broth without any salt supplement) and diluted one in 10,000 in the same medium to give concentrations of about 10^4 to 10^5 CFU/ml. The broth dilutions were set up in a 96 well microtiter plate by putting 200 μl of LB-S containing the initial concentration of antibiotic or compound in column 1 and 100 μl of the same medium in columns 2-12. The compounds were diluted by taking 100 μl of broth from column 1 and mixing it with column 2, resulting in a one in two dilution. This was continued to column 10. Finally, 10 μl of bacteria were pipetted into columns 1-11, and the plates incubated overnight at 37° C. The next day the plates were scored for growth in the wells, and the MIC determined.

S. aureus = test: MIC, broth dilution in LB-S; type: cell-based; conditions: for MIC K147 / MIC SAP: MBI 29 and MBI21 derivatives; for MIC: Table 1a
Experimental: as §3, §4

E. coli = test: MIC, broth dilution in LB-S; type: cell-based; conditions: for MIC E. coli 0111:B4: MBI 29 and MBI21 derivatives
Experimental: as §3, §4

E. faecalis = test: MIC, broth dilution in LB-S; type: cell-based; conditions: MBI 29 and MBI21 derivatives
Experimental: as §3, §4

C610 = test: MIC, broth dilution in LB-S; type: cell-based, S. typhimurium; conditions: MBI 29 and MBI21 derivatives
Experimental: as §3, §4

S. epidermis = conditions: for MIC S. epi 0017: MBI 29 and MBI21 derivatives
Experimental: as §1, §4

P. aeruginosa [2] = conditions: for MIC H103: MBI 29 and MBI21 derivatives
Experimental: as §1, §4

Candida albicans = test: MIC, broth dilution in LB-S; type: cell-based; conditions: Candida alibicans (CAN105); Table 1a
Experimental: as §1, §4

[3] = X. maltophila isolate 37, strain 3095
[4] = X. maltophila isolate 38, strain 7901
[5] = X. maltophila isolate 39, strain B3110.1
[6] = X. maltophila isolate 40, strain R1302-1
[7] = X. maltophila isolate 44, strain W6896-2
[8] = X. maltophila isolate 45, strain W11291
[9] = P. aeruginosa isolate 23, strain ATCC 27853
[10] = P. aeruginosa isolate 25, strain 923-1
[11] = P. aeruginosa isolate 26, strain 3101
[12] = P. aeruginosa isolate 27, strain 14644
[13] = P. aeruginosa isolate 28, strain 15036
[14] = P. aeruginosa isolate 30, strain B3999-1
[15] = P. aeruginosa isolate 32, strain W2897-1
[16] = E. cloacae isolate 14, strain 938-2
[17] = E. cloacae isolate 18, strain 3077

C[C@@H](O)[C@H]1C(=O)N2C(C(=O)O)=C(SCCN=CN)C[C@H]12 [Imipenem] showed an MIC (X. maltophila; X. maltophila isolate 34, strain ATCC 13637) of 512 µg/mL, an MIC (X. maltophila; X. maltophila isolate 35, strain 6) of 512 µg/mL and an MIC (X. maltophila; X. maltophila isolate 36, strain 16) of 512 µg/mL. It also gave an MIC (X. maltophila; [3]) of 512 µg/mL, an MIC (X. maltophila; [4]) of 512 µg/mL and an MIC (X. maltophila; [5]) of 512 µg/mL. It also gave an MIC (X. maltophila; [6]) of 512 µg/mL, an MIC (X. maltophila; X. maltophila isolate 41, strain R4230) of 512 µg/mL and an MIC (X. maltophila; X. maltophila isolate 42, strain TF29-1) of 512 µg/mL. It also gave an MIC (X. maltophila; X. maltophila isolate 43, strain TF29-2) of 512 µg/mL, an MIC (X. maltophila; [7]) of 512 µg/mL and an MIC (X. maltophila; [8]) of 512 µg/mL. It also gave an MIC (P. aeruginosa [1]; [9]) of 4 µg/mL, an MIC (P. aeruginosa [1]; [10]) of 2 µg/mL and an MIC (P. aeruginosa [1]; [11]) of 4 µg/mL. The MIC (P. aeruginosa [1]; [12]) was 8 µg/mL, the MIC (P. aeruginosa [1]; [13]) was 8 µg/mL and the MIC (P. aeruginosa [1]; P. aeruginosa isolate 29, strain 15545) was 128 µg/mL. For the same compound, the MIC (P. aeruginosa [1]; [14]) was 128 µg/mL, the MIC (P. aeruginosa [1]; [15]) was 128 µg/mL and the MIC (A. calcoaceticus; A. calcoaceticus isolate 3, strain 27) was 512 µg/mL. It also gave an MIC (A. calcoaceticus; A. calcoaceticus isolate 4, strain 28) of 8 µg/mL, an MIC (A. calcoaceticus; A. calcoaceticus isolate 7, strain 8222) of 2 µg/mL and an MIC (A. calcoaceticus; A. calcoaceticus isolate 11, strain 8226) of 2 µg/mL. For the same compound, the MIC (E. cloacae; E. cloacae isolate 12, strain ATCC 13047) was 2 µg/mL, the MIC (E. cloacae; [16]) was 2 µg/mL and the MIC (E. cloacae; [17]) was 2 µg/mL. The MIC (E. cloacae; E. cloacae isolate 19, strain 3356) was 2 µg/mL and the MIC (E. cloacae; E. cloacae isolate 20, strain 14269) was 2 µg/mL.

Compound CCN1CCN(C(=O)N[C@@H](C(=O)N[C@@H]2C(=O)N3[C@@H]2SC(C)(C)[C@@H]3C(=O)O)c2ccccc2)C(=O)C1=O [Piperacillin] has an MIC (X. maltophila; [3]) of 1024 µg/mL, an MIC (X. maltophila; [4]) of 1024 µg/mL and an MIC (X. maltophila; [5]) of 1024 µg/mL. It also gave an MIC (X. maltophila; [6]) of 1024 µg/mL, an MIC (X. maltophila; [8]) of 1024 µg/mL and an MIC (P. aeruginosa [1]; [9]) of 128 µg/mL. It also gave an MIC (P. aeruginosa [1]; [10]) of 32 µg/mL, an MIC (P. aeruginosa [1]; [11]) of 128 µg/mL and an MIC (P. aeruginosa [1]; [12]) of 1024 µg/mL. It also gave an MIC (P. aeruginosa [1]; [14]) of 256 µg/mL, an MIC (P. aeruginosa [1]; P. aeruginosa isolate 31, strain U7688-1) of 256 µg/mL and an MIC (P. aeruginosa [1]; [15]) of 32 µg/mL. The MIC (P. aeruginosa [1]; Pseudomonas aeruginosa, P. aeruginosa isolate 23, strain ATCC 27853) was 256 µg/mL, the MIC (A. calcoaceticus; A. calcoaceticus isolate 9, strain 8224) was 128 µg/mL and the MIC (E. cloacae; [16]) was 4 µg/mL. The MIC (E. cloacae; [17]) was 4 µg/mL and the MIC (E. cloacae; E. cloacae isolate 21, strain 14661) was 8 µg/mL.

Work on O=C(O)c1cn(C2CC2)c2cc(N3CCNCC3)c(F)cc2c1=O [Ciprofloxacin] yielded an MIC (X. maltophila; [7]) of 8 µg/mL and an MIC (P. aeruginosa [1]; [13]) of 32 µg/mL.

For KWKSFIKKLTSVLKKVVTTALPALIS [MBI29A1], the “MIC B. Subtilis” value (B. Subtilis) was 16 µg/mL, the “MIC K147” value (S. aureus) was 16 µg/mL and the “MIC SAP” value (S. aureus) was 16 µg/mL. For the same compound, the “MIC E. coli 0111:B4” value (E. coli) was 4 µg/mL, the “MIC E. faecalis” value (E. faecalis) was 64 µg/mL and the “MIC C610” value (C610) was 8 µg/mL. The “MIC S. epi 0017” value (S. epidermis) was 16 µg/mL and the “MIC H103” value (P. aeruginosa [2]) was 16 µg/mL.

For “MA-20: 20 carboxy terminal amino acids of melittin (MA) [reference compound]”, the MIC (S. aureus; S. aureus (K 147)) was “≧64”, the MIC (S. aureus; S. aureus (SAP0017)) was “≧64” and the MIC (E. coli; E. coli (UB1005), Table 1a) was “≧64”. For the same compound, the MIC (Candida albicans) was “≧64”, the MIC (S. epidermis; S. epidermis, Table 1a) was “≧64” and the MIC (P. aeruginosa [2]; P. aeruginosa (H187), Table 1a) was “≧64”.

For KWKLFKKKGTGAVLTVLTTGLPALIS [MBI29A3], the “MIC B. Subtilis” value (B. Subtilis) was 16 µg/mL, the “MIC K147” value (S. aureus) was 32 µg/mL and the “MIC SAP” value (S. aureus) was 32 µg/mL. For the same compound, the “MIC E. coli 0111:B4” value (E. coli) was 8 µg/mL, the “MIC E. faecalis” value (E. faecalis) was >128 µg/mL and the “MIC C610” value (C610) was 8 µg/mL. For the same compound, the “MIC S. epi 0017” value (S. epidermis) was 16 µg/mL and the “MIC H103” value (P. aeruginosa [2]) was 16 µg/mL.

With KWKSFIKNLTKVLKKVVTTALPALIS [MBI29A2] the “MIC B. Subtilis” value (B. Subtilis) was 8 µg/mL, the “MIC K147” value (S. aureus) was 16 µg/mL and the “MIC SAP” value (S. aureus) was 8 µg/mL. For the same compound, the “MIC E. coli 0111:B4” value (E. coli) was 8 µg/mL, the “MIC E. faecalis” value (E. faecalis) was 64 µg/mL and the “MIC C610” value (C610) was 8 µg/mL. The “MIC S. epi 0017” value (S. epidermis) was 16 µg/mL and the “MIC H103” value (P. aeruginosa [2]) was 16 µg/mL.
